The subject of assay [1] is renalase. The method, then: Horizontal bars at top of figure indicate period of 5 minute epinephrine infusions.
Assay [2] concerns the target renalase (Rattus norvegicus, UniProt Q5U2W9). The note with it: CKD rats compared with control rats.

The structures appear in SMILES notation. Read-outs that look alike come from different tables or passages of the source.

Chain of renalase (Rattus norvegicus, UniProt Q5U2W9) (Q5U2W9 18-315): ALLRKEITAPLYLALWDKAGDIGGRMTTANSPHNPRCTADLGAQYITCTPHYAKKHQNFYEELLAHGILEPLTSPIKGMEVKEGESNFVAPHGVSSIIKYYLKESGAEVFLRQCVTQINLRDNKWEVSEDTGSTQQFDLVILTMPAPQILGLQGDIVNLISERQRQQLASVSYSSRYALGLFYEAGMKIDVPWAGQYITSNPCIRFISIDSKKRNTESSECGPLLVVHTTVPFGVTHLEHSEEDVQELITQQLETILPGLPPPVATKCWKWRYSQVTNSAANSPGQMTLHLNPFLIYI

As to `CNC[C@H](O)c1ccc(O)c(O)c1` [epinephrine], the “renalase protein levels in blood” value in the assay on renalase [1] (second administration 30 minutes later) is “only a modest decline”; in the assay on renalase [1] (shortly after an initial infusion of epinephrine), “drop significantly”; with renalase [1] (within ten minutes of the initial infusion), “recover and exceed initial protein levels”. The “magnitude and duration of blood renalase activation” value on renalase [2] is listed as “significantly lower”.

For the origin of these results see US7858084B2, “Methods of treatment with renalase (monoamine oxidase C)” (Yale University, priority 2005, dated 2010).
